Experimental data taken from patent US20250000836A1, “PARTICLE DELIVERY OF THYROID HORMONE RECEPTOR AGONISTS AND ANTAGONISTS” (CYTA THERAPEUTICS, INC., priority 2021, published 2025).
Marks after values point to notes of the source that are not given here.

Columns and labels:
[1] = tested on: Diet Induced Obese (DIO) mice; test: In vivo insulin resistance analysis (HOMA-IR) in DIO mice; conditions: 24 weeks HFD then 5-week dosing at 5, 10 or 20 μg/kg
Description: DIO mice were used to study the in vivo effects of CYTA-001 on insulin resistance within the context of obesity and diet. Homeostatic model assessment for insulin resistance (HOMA-IR) levels were measured in DIO mice that were conditioned on high fat diets (HFD) for 24 weeks prior to a 5-week dosing regimen. The HFD DIO mice were treated with either the non-liver targeted TRβ agonist, Axitirome (CGS26214), also referred to as “drug” in FIG. 11, or CYTA-001 at 5 μg/kg, 10 μg/kg, or 20 μg/kg dosages for 5 weeks.

[2] = tested on: Diet Induced Obese (DIO) mice; test: In vivo serum T4 and TSH analysis in Diet Induced Obese mice; conditions: 5, 10 or 20 μg/kg, 12-week and 24-week timepoints, compared to lean control and high fat control
Description: A Diet Induced Obese (DIO) mouse model was used to study the in vivo effects of the CGS26214-encapsulated nanogels with anionic group-modified backbone (CGS-ANG), referred to as “CYTA-001,” on serum T4 and TSH within the context of obesity.
The DIO mice were treated with either the non-liver targeted TRβ agonist, Axitirome (CGS26214), also referred to as “drug” in FIGS. 10A and B, or CYTA-001 at 5 μg/kg, 10 μg/kg, or 20 μg/kg for 12 weeks or 24 weeks. Treated DIO mice serum T4/TSH levels were compared to a lean control (LC control), or low fat diet, and to a high fat control (HF control). After each designated treatment period, all the mice were sacrificed unfasted by cardiac puncture after gradual-fill CO2 asphyxiation. Terminal blood samples were collected in SST-SERUM separator tubes for serum collection.
Serum was analyzed for thyroid hormone T4 and thyroid stimulating hormone (TSH) levels. […] This is an unexpected result as thyromimetics have not been observed for weight loss without some level of peripheral activation of the TRα or TRβ receptor. Peripheral activation of the TRα receptor is generally toxic and ideally avoided.

[3] = Body weight and liver weight in the 12 week and 24 week HFD NASH models; assay type: in vivo, mice; conditions: the two models (12 week and 24 week HFD), i.p. once per day, 5 weeks
Description: All animal care and experimental procedures were approved by the Ethical Committee on Animal Care and Experimentation. Male C57BL/6J mice were purchased at 6 weeks of age from the Jackson Laboratory and housed in a controlled environment (12 h light/dark cycle, 21±2° C., humidity 50±10%). Mice were permitted ad libitum access to water and either 10 kcal % fat control diet (CD, Cat #D09100304, Research Diets) or 40 kcal % fat, 20 kcal % fructose and 2% cholesterol high fat diet (HFD, Cat #D09100310, Research Diets). […]
Body weight and food intake per cage were measured regularly during the study. […]

[4] = tested on: HFD-induced NASH (fully developed NASH model), male C57BL/6J mice; test: Serum biochemical analysis, fully developed NASH model (24 week HFD prior to dosing); assay type: in vivo; conditions: 5 weeks, mean ± SE
Description: (§1) All animal care and experimental procedures were approved by the Ethical Committee on Animal Care and Experimentation. Male C57BL/6J mice were purchased at 6 weeks of age from the Jackson Laboratory and housed in a controlled environment (12 h light/dark cycle, 21±2° C., humidity 50±10%). Mice were permitted ad libitum access to water and either 10 kcal % fat control diet (CD, Cat #D09100304, Research Diets) or 40 kcal % fat, 20 kcal % fructose and 2% cholesterol high fat diet (HFD, Cat #D09100310, Research Diets).
(§2) To test the therapeutic effect of CGS-ANG in treating HFD-induced NASH, mice were fed HFD or LFD for 24 weeks (fully developed NASH model) and then randomly assigned to 9 groups with 8-10 mice per group before the medical treatments: (1), CD: mice fed the CD diet and treated with vehicle; (2), HFD: mice fed the HFD diet and treated with vehicle; (3), CGS-D1: mice fed the HFD diet and treated with 5 μg/kg of CGS26214; (4), CGS-D2: mice fed the HFD diet and treated with 10 μg/kg of CGS26214; (5) CGS-D3: mice fed the HFD diet and treated with 20 μg/kg of CGS 26214; (6) CNG-D1: mice fed the HFD diet and treated with CGS-ANG loaded with CGS26214 at a dose of 5 μg/kg; (7) CNG-D2: mice fed the HFD diet and treated with CGS-ANG loaded with CGS 26214 at a dose of 10 μg/kg; (8) CNG-D3: mice fed the HFD diet and treated with CGS-ANG loaded with CGS 26214 at a dose of 20 μg/kg; (9) BNG: mice fed the HFD diet and treated with BNG with the same dose of nanogels as group (8). All the treatments were injected intraperitoneally at the doses indicated once per day before the dark cycle of the day for 5 weeks.
(§3) After each designated treatment period, all the mice were sacrificed unfasted by cardiac puncture after gradual-fill CO2 asphyxiation. Terminal blood samples were collected in SST-SERUM separator tubes for serum collection. Epididymal fat pads (EFP), liver and hearts were removed and weighed. Data (weight gain, liver weight, heart weight, epididymal fat pad weight) from the 12 week and 24 week study are shown in FIGS. 3A-3D and 4A-4D, respectively. Portions of livers and hearts were collected and stored at −80° C. or fixed in 4% paraformaldehyde solution (Sigma-Aldrich, St. Louis, MO) for further analysis. Visual images of mice from each treatment groups at 24 weeks is shown in FIG. 5 while images of mice liver from each treatment group at 24 weeks is shown in FIG. 6.
(§4) Analysis of serum cholesterol (TC), high-density lipoprotein cholesterol (HDL-C), low-density lipoprotein cholesterol (LDL-C), triglycerides (TG), serum alanine aminotransferase (ALT) and aspartate aminotransferase (AST) was performed at Indexx BioAnalytics (North Grafton, MA) Plasma glucose, insulin, amyloid A (SAA), E-selectin and monocyte chemoattractant protein-1 (MCP-1) were quantified using commercial kits. Data from the 12 week and 24 week study are shown in Table 2 and Table 3, respectively.

[5] = tested on: HFD-induced NASH, mouse liver; test: Liver histology (H&E, Masson's trichrome), 24 week study; assay type: in vivo, mice; conditions: groups CGS-2 / CNG-2 (10 μg/kg CGS26214 i.p. once per day, 5 weeks)
Description: as §2, with “weeks. […]” for “weeks.”

[6] = tested on: HFD-induced NASH (mild NASH model), male C57BL/6J mice; test: Serum biochemical analysis, mild NASH model (12 week HFD prior to dosing); assay type: in vivo; conditions: for ALT / AST / Cholesterol / HDL Cholesterol / LDL Cholesterol / Triglycerides: serum, 12 week HFD prior to dosing, 5 weeks, mean ± SE
Description: as §1
To test the preventative effect of CGS-ANG in treating HFD-induced NASH, mice were fed high fat diet (HFD) or low fat diet (CD) for 12 weeks (mild NASH model) and then randomly assigned to 9 groups with 8-10 mice per group before treatment: (1), CD: mice fed the CD diet and treated with vehicle; (2), HFD: mice fed the HFD diet and treated with vehicle; (3), CGS-D1: mice fed the HFD diet and treated with 10 μg/kg of CGS26214 (suspended in saline with 1% DMSO); (4), CGS-D2: mice fed the HFD diet and treated with 20 μg/kg of CGS26214; (5) CGS-D3: mice fed the HFD diet and treated with 60 μg/kg of CGS26214; (6) CNG-D1: mice fed the HFD diet and treated with CGS-ANG loaded with CGS26214 at a dose of 10 μg/kg; (7) CNG-D2: mice fed the HFD diet and treated with CGS-ANG loaded with CGS26214 at a dose of 20 μg/kg; (8) CNG-D3: mice fed the HFD diet and treated with CGS-ANG loaded with CGS 26214 at a dose of 60 μg/kg; (9) BNG: mice fed the HFD diet and treated with BNG with the same dose of nanogels with group (8). All the treatments were injected intraperitoneally at the doses indicated once per day before the dark cycle of the day for 5 weeks.
as §3, §4

[7] = 5 μg/kg CGS26214 i.p. once per day
[8] = 10 μg/kg CGS26214 i.p. once per day
[9] = 20 μg/kg CGS26214 i.p. once per day
[10] = 60 μg/kg CGS26214 i.p. once per day

- change in serum TSH [2]: statistically significant change
Structure (SMILES): CCOC(=O)C(=O)Nc1cc(C)c(Oc2ccc(O)c(C(O)c3ccc(F)cc3)c2)c(C)c1 (racemic) [CGS26214, ethyl (+−)-((4-(3-((4-fluorophenyl)hydroxymethyl)-4-hydroxyphenoxy)-3,5-dimethylphenyl)amino)oxoacetate]
- insulin resistance (HOMA-IR) [1]: not observed to produce a significant effect
- effects on body weight [3]: only moderate effects
- effects on liver weight [3]: only moderate effects
- ALT [4, 7]: 276 ± 20^d
- AST [4, 7]: 319 ± 15^ceg
- Cholesterol [4, 7]: 278.9 ± 20.2^cef mg/dL
- LDL Cholesterol [4, 7]: 18.4 ± 2.3 mg/dL
- ALT [4, 8]: 257 ± 20^cd
- Cholesterol [4, 8]: 236.8 ± 16.6^cd mg/dL
- HDL Cholesterol [4, 8]: 113.4 ± 5.5^ab mg/dL
- LDL Cholesterol [4, 8]: 15.3 ± 1.1 mg/dL
- Triglycerides [4, 8]: 94.7 ± 9.5^cdf mg/dL
- ALT [4, 9]: 225 ± 10^cd
- AST [4, 9]: 247 ± 17^de
- Cholesterol [4, 9]: 196.9 ± 10.2^ade mg/dL
- HDL Cholesterol [4, 9]: 96.3 ± 3.9^ac mg/dL
- LDL Cholesterol [4, 9]: 11.4 ± 1.2 mg/dL
- Triglycerides [4, 9]: 90.3 ± 5.7^ad mg/dL
- fibrosis and collagen deposition (Masson's trichrome staining) [5]: show signs of fibrosis and collagenous tissue fiber formation
- steatosis, inflammation and ballooning degeneration (hematoxylin-eosin staining) [5]: show macrovesicular and microvesicular steatosis, inflammation, and ballooning degeneration
- ALT [6, 8]: 196 ± 26
- AST [6, 8]: 205 ± 27
- Cholesterol [6, 8]: 158.2 ± 19.2 mg/dL
- HDL Cholesterol [6, 8]: 87.2 ± 9.6 mg/dL
- LDL Cholesterol [6, 8]: <7 mg/dL
- Triglycerides [6, 8]: 87.6 ± 3.5 mg/dL
- ALT [6, 9]: 217 ± 28
- AST [6, 9]: 252 ± 47
- Cholesterol [6, 9]: 155.8 ± 11.8 mg/dL
- HDL Cholesterol [6, 9]: 76.8 ± 5.8 mg/dL
- LDL Cholesterol [6, 9]: <7 mg/dL
- Triglycerides [6, 9]: 83.5 ± 10 mg/dL
- ALT [6, 10]: 279 ± 68
- AST [6, 10]: 303 ± 49
- Cholesterol [6, 10]: 105.5 ± 23.7 mg/dL
- HDL Cholesterol [6, 10]: 53.1 ± 10.8 mg/dL
- LDL Cholesterol [6, 10]: <7 mg/dL
- Triglycerides [6, 10]: 78.7 ± 7.2 mg/dL
- reversing or preventing changes in biochemical markers induced by the high-fat diet ([6]; summary of Tables 2 and 3 (12 week and 24 week models), compared with LC control): much less effective
